Experimental data published in article PMC8379256, “A xanthene derivative, DS20060511, attenuates glucose intolerance by inducing skeletal muscle-specific GLUT4 translocation in mice” (Communications Biology, 2021).
Values joined by “and” are separate entries in the source; they are usually repeats but may differ in a detail not shown here. Identical values can stand only once.

Legend:
[1] = tested on: wild-type and GLUT4KO mice; assay: Oral GTT in wild-type and GLUT4 knockout mice; assay type: in vivo, mouse; conditions: for Blood glucose / Plasma insulin: glucose tolerance test, DS20060511 30 mg/kg, individual animals, 30 mg/kg; for blood glucose and plasma insulin levels during oral GTT (in words): 30 mg kg−1 po
Protocol: Fig. 3 The glucose-lowering effect of DS20060511 is totally dependent on GLUT4. a Blood glucose and plasma insulin levels during oral GTT in wild-type (WT, n = 5) and GLUT4 knockout (KO, n = 6) mice. Mice received oral administration of vehicle or DS20060511 (30 mg kg^−1), 15 min prior to the glucose administration (1.5 g kg^−1). Values shown are means ± SEM. *P < 0.05, **P < 0.01 vs. vehicle by the t-test. b DS20060511-stimulated [^3H]-2-DG uptake in the isolated soleus and EDL muscles excised from WT (n = 6) and KO (n = 6) mice. Values shown are means ± SEM. **P < 0.01 vs. vehicle by the t-test.
C57BL/6 and db/db mice were purchased from CLEA Japan, Tokyo, Japan. GLUT4- knockout mice were generated at RIKEN BioResource Center, Tsukuba, Japan, according to a previously described method. eNOS-knockout mice were kindly provided by Dr. Masato Tsutsui[41],[42]. The mice were group-housed under controlled illumination (12:12 h light-dark cycle) and temperature (23 ± 2 °C) conditions and given free access to normal chow and water, unless otherwise specified. The HFD-fed obese mice were prepared by feeding C57BL/6 mice a HFD for at least 8 weeks from 6 weeks of age. […] Male mice were used for all the experiments in this study. The animal care and experimental procedures used in the study were approved by The University of Tokyo Animal Care Committee (Approval number: 27-3), and the study was carried out in accordance with the Animal Experimentation Guidelines of Daiichi Sankyo Co., Ltd (Approved number: 20000411).
Mice that had been denied access to food overnight received the indicated oral dose of DS20060511 or vehicle 15 min prior to the glucose load (1.5 g kg^−1, except for eNOS-knockout mice, which received 3.0 g kg^−1). Then, after the oral glucose load, the blood glucose levels were measured using Glutest Every in samples obtained from the tail vein at the indicated timepoints. Plasma insulin concentrations were also measured with an ELISA kit (Morinaga Institute of Biological Science, Yokohama, Japan) in blood samples collected from the tail vein at the indicated timepoints.

AMPKα = AMPKα phosphorylation in triceps surae muscle in vivo; set-up: species or system mouse; conditions: no-exercise condition, 10 mg kg−1, Fig. 6c
Protocol: The tissue sample was homogenized with a Polytron homogenizer and lysed in a lysis buffer (25 mM Tris-HCl, pH 7.4, 100 mM NaF, 50 mM Na4P2O7, 10 mM EGTA, 10 mM EDTA, 10 mM Na3VO4, 1 mM PMSF, and 1% NP-40) on ice, and the lysate was centrifuged at 17,860 × g for 10 min at 4 °C. The supernatant was collected and the protein concentrations were determined by BCA assay (Thermo Fisher Scientific). Immunoprecipitation of IRβ and IRS1 was performed as described previously, using specific antibodies against IRβ (sc-711, Santa Cruz Biotechnology, Dallas, TX), IRS1 (06-248, Merck Millipore, Burlington, MA), and for detection of phosphotyrosine (05-321, Merck Millipore). Five milligrams of the extracts were incubated with specific antibodies against IRS1 for 1 h at 4 °C. Then, protein G-Sepharose was added, followed by incubation for 2 h at 4 °C. After washing three times, the immunocomplexes were subjected to immunoblotting.
Phosphorylated or total protein of IRβ and IRS1 was resolved on 7% SDS-PAGE and analyzed using specific antibodies against IRβ, IRS1, and phosphotyrosine. […] Bound antibodies were detected with HRP-conjugated secondary antibodies using ECL detection reagents (GE Healthcare, Chicago, IL).

COc1ccc2c(C)c(C(=O)O)ccc2c1C1C2=C(CC(C)(C)CC2=O)OC2=C1C(=O)CC(C)(C)C2 [DS20060511]
Blood glucose ([1]; GLUT4KO mice, 0 min): 151 mg/dL and 106 mg/dL and 203 mg/dL and 105 mg/dL and 130 mg/dL | Plasma insulin ([1]; GLUT4KO mice, 0 min): 0.11 ng/mL and 0.07 ng/mL and 0.16 ng/mL and 0.12 ng/mL and 0.18 ng/mL | Blood glucose ([1]; GLUT4KO mice, 15 min): 361 mg/dL and 352 mg/dL and 278 mg/dL and 400 mg/dL and 444 mg/dL | Plasma insulin ([1]; GLUT4KO mice, 15 min): 0.43 ng/mL and 0.42 ng/mL and 0.55 ng/mL and 0.33 ng/mL and 0.70 ng/mL and 0.59 ng/mL | Blood glucose ([1]; GLUT4KO mice, 30 min): 422 mg/dL and 387 mg/dL and 377 mg/dL and 384 mg/dL and 492 mg/dL and 513 mg/dL | Plasma insulin ([1]; GLUT4KO mice, 30 min): 0.34 ng/mL and 0.39 ng/mL and 0.25 ng/mL and 0.30 ng/mL and 0.28 ng/mL | Blood glucose ([1]; GLUT4KO mice, 60 min): 272 mg/dL and 266 mg/dL and 232 mg/dL and 390 mg/dL and 329 mg/dL and 389 mg/dL | Blood glucose ([1]; GLUT4KO mice, 90 min): 175 mg/dL and 168 mg/dL and 194 mg/dL and 265 mg/dL and 245 mg/dL and 275 mg/dL | Blood glucose ([1]; GLUT4KO mice, 120 min): 115 mg/dL and 112 mg/dL and 165 mg/dL and 193 mg/dL and 153 mg/dL and 190 mg/dL | Blood glucose ([1]; GLUT4KO mice, -15 min): 93 mg/dL and 75 mg/dL and 110 mg/dL and 49 mg/dL and 95 mg/dL and 89 mg/dL | Plasma insulin ([1]; GLUT4KO mice, -15 min): 0.06 ng/mL and 0.10 ng/mL and 0.11 ng/mL and 0.18 ng/mL and 0.13 ng/mL and 0.14 ng/mL | blood glucose and plasma insulin levels during oral GTT (in words) ([1]; GLUT4KO mice): completely abolished | Blood glucose ([1]; Wildtype mice, 0 min): 69 mg/dL and 44 mg/dL and 58 mg/dL and 62 mg/dL and 46 mg/dL | Plasma insulin ([1]; Wildtype mice, 0 min): 0.10 ng/mL and 0.02 ng/mL and 0.13 ng/mL and 0.14 ng/mL | Blood glucose ([1]; Wildtype mice, 15 min): 133 mg/dL and 103 mg/dL and 142 mg/dL and 181 mg/dL and 104 mg/dL | Plasma insulin ([1]; Wildtype mice, 15 min): 0.16 ng/mL and 0.14 ng/mL and 0.17 ng/mL and 0.18 ng/mL and 0.11 ng/mL | Blood glucose ([1]; Wildtype mice, 30 min): 124 mg/dL and 111 mg/dL and 100 mg/dL and 107 mg/dL | Plasma insulin ([1]; Wildtype mice, 30 min): 0.26 ng/mL and 0.10 ng/mL and 0.15 ng/mL | Blood glucose ([1]; Wildtype mice, 60 min): 92 mg/dL and 64 mg/dL and 99 mg/dL and 91 mg/dL and 76 mg/dL | Blood glucose ([1]; Wildtype mice, 90 min): 71 mg/dL and 61 mg/dL and 87 mg/dL and 88 mg/dL and 68 mg/dL | Blood glucose ([1]; Wildtype mice, 120 min): 74 mg/dL and 72 mg/dL and 70 mg/dL and 78 mg/dL and 82 mg/dL | Blood glucose ([1]; Wildtype mice, -15 min): 66 mg/dL and 39 mg/dL and 48 mg/dL and 81 mg/dL and 64 mg/dL | Plasma insulin ([1]; Wildtype mice, -15 min): 0.14 ng/mL and 0.18 ng/mL and 0.11 ng/mL | blood glucose and plasma insulin levels during oral GTT (in words) ([1]; wild-type (WT) mice): significant decrease of the blood glucose and plasma insulin levels | AMPK phosphorylation level in the skeletal muscle (AMPKα): remained unchanged
